According to US20060084599A1, “Compositions, methods and kits relating to notch signaling” (Maine Medical Center, priority 2003, published 2006):
Marks after values point to notes of the source that are not given here.

How the values were obtained:
Type in all cases: cell-based, murine
FGF1.A transcript = assay: RT-PCR analysis of FGF1.A mRNA in NCSC; conditions: 48 hours; 7.5 nM sJ1, 5.0 nM sDl1, 10 μg/ml α-thrombin or 5 μg/ml TRAP
cortical neurospheres = assay: Cortical neurosphere model, secondary sphere formation; conditions: for F/SP × 10^2 / Cells/Founder (F) / Secondary Spheres (SP): at day 10; for Cells/Founder (F) / Secondary Spheres (SP): mean ± SD of three experiments; for secondary spheres per primary sphere: primary spheres grown 2 weeks with factor, secondary spheres in standard media
Excerpt: Murine E13 cerebral cortices were dissected, the ventricular zone isolated, dissected free of the meninges and utilized as a source for the generation of clonal neurspheres. The resulting cells were dispersed by aspiration to produce single cells and cells expressing the […], CD24 as previously described (Rietze et al., 2001), and peanut agglutinin antigen (PNA) were sorted using a FASC Vantage SE cell sorter at a low gate (CD24^low/PNA^low), and the cells were subjected to immunofluoresence microscopy using an antibody against CD24 (Rietze et al., 2001, Nature 412:736-739). Double-positive cells (2×10^3 /ml) were plated in suspension as described (Reynolds et al., 1992, J. Neurosci. 12:4565-4574; Reynolds et al., 1992, Science 255:1707-1710) and secondary neurospheres generated 14 days later by isolating single spheres followed by trypsin digestion of each sphere. Cells obtained from the sphere were placed in suspension culture at a clonal cell seed density and colonies selected.
The E14 prefrontal ventricular zone was dissected and plated at a clonal neurosphere-forming density in the presence of either sJ1, sDl1, thrombin, TRAP or no supplementation. After 2 weeks, the clones were dissociated to single cells and secondary spheres were generated using standard media with no supplementation (Reynolds et al., 1992, J. Neurosci. 12:4565-4574).
Secondary spheres (SP) are formed from the dissociation of founder (F) spheres. The data presented are the number of colonies (mean ± SD of three experiments). (*=p#0.05).

[1] = system: Nestin, Nucleostemin, and Bmi1 transcripts; assay: RT-PCR of stem cell marker transcripts; conditions: for levels of Nestin, Nucleostemin and Bmi1 transcripts: p75+/P0- neural crest stem cells, 24 and 48 hours; for relative expression of Nestin, Nucleostemin and Bmi1 transcripts: primary and secondary neurosphere cultures
Experimental: RT-PCR was performed with 1 μg RNA using the Platinum Taq One Step RT-PCR kit (Invitrogen) as follows: RT (30 minutes at 50° C.), PCR (40 cycles at 94° C. for 15 seconds, at 58° C. for 30 seconds and 72° C. for 1 minute). All amplified cDNA was visualized with ethidium bromide followed by 1.5% agarose gel electrophoresis. RT-PCR analysis of fgf and gapdh was performed as previously described elsewhere herein. RT-PCR analysis of stem cell RNA was performed as previously described (Verdi et al., 1994, Neuron 13:1359-1372; Verdi et al., 1996, Neuron 16:515-527) using primers generating amplification products of Nucleostemin from 894 to 1304 of the mouse cDNA (sense: Nucleostemin 894 5′-CAAATGTGGGGAAAAGCAGTGTCA-3′ [SEQ ID NO:34] and antisense: Nucleostemin 1304 5′-GCAGGGGGATGGCAATAGTAACC-3′ [SEQ ID NO:35]); Bmi1 from 242 to 632 of mouse cDNA (sense: Bmi 242 5′-AATTAGTCCCAGGGCTTTTCAA-3′ [SEQ ID NO:36] and antisense: Bmi 632 5′-GGGCCATTTCTTCTCCAGGTAT-3′ [SEQ ID NO:37]), and Nestin from 320-748 (sense: Nestin 320 5′-CA ACC TTG CCG AAG AGC TGG-3′ [SEQ ID NO:38] and antisense: Nestin 720 5′-TCTAAGCGACTCTCCGAGCGC-3′ [SEQ ID NO:39]). Each reaction product was measured as a ratio relative to the amplification product of actin and samples were run in triplicate. All RT-PCR experiments were performed at least three times from separate stem cell isolations. Dual Luciferase Reporter Assay

NCSC populations [2] = assay: Serial subcloning and clonogenic differentiation of secondary NCSC; set-up: G (glial only) colonies / Sm (smooth muscle only) colonies / G + Sm colonies: unit not given here; conditions: for G (glial only) colonies / G + Sm colonies / N (neurons only) colonies / N + G + Sm (trifatent) colonies / N + G colonies / N + Sm colonies / Sm (smooth muscle only) colonies: differentiation profile of secondary NCSC clones; for G (glial only) colonies / G + Sm colonies / N (neurons only) colonies / N + G + Sm (trifatent) colonies / N + G colonies / N + Sm colonies / Sm (smooth muscle only) colonies / Secondary NSSC/ Founder: mean ± SD of three experiments; for clones that were trifatent (neurons, glial, and smooth muscle progeny): secondary clones from treated founder clones; for Secondary NSSC/ Founder: secondary stem cells from NCSC founders after ten days of expansion
Experimental: (§1) Clonogenic assays were performed as described (Stemple et al., 1992, Cell 71:973-985). Briefly, populations of murine NCSC were plated at a clonal density and maintained for a maximum of 14 days in Morrison media supplemented with 15% chick embryo extract (Morrison et al., 1999, Cell 96:737-749). The resulting clones were fixed in an acetic acid:ethanol solution (2:1) and stained with antibodies against peripherin (Chemicon) to detect neurons, smooth muscle actin (Sigma) to detect myofibroblasts, and GFAP (Chemicon) to detect Schwann cells. Clones were scored based on the appearance of just one phenotypic representative. The number and percentage of clones containing neurons only (N), Schwann cells only (S), myofibroblasts only (M), N+S, N+M, N+S+M, and S+M were scored at day 14 unless otherwise stated. The production of each representative phenotype in each individual clone was also scored to complement the clonal population assay.
In order to generate secondary NCSC populations, founder clones originating from differentiating E10 clones at distinct time points during NCSC differentiation (days 2 through 18) were treated with trypsin and replated at a cell clonal density using methods previously described (Kubu et al., 2000, Genomics 70:150-152). The resulting cells were subjected to immunofluorescence microscopy using both p75^+ and P0^− antibodies (Kubu et al., 2000, Genomics 70:150-152) and the p75^+/P0^− cells identified as putative stem cells. All non-p75^+/P0^− cells were removed from the dish with a tungsten needle. The cultures of secondary NCSC clones were subjected to the clonogenic assay as described above.

NCSC populations [3] = assay: Clonogenic differentiation of primary NCSC clones (differentiation markers, GFAP immunoreactivity); conditions: for NCSC clones not expressing gliogenic or neurogenic differentiation markers: after 7 days of expansion
Experimental: as §1
Instead of examining the NCSC progeny after 14 days, developing clones were examined beginning at day 2 in order to determine the time period when gliogenic differentiation was initiated.
Specifically, clonogenic differentiation and serial subcloning assays were performed using NCSC clones incubated with either thrombin, sDl1, sJ1 or TRAP.

Molecule | expression of the FGF1.A transcript in NCSC (FGF1.A transcript) | F/SP × 10^2 (cortical neurospheres) | Cells/Founder (F) (cortical neurospheres) | Secondary Spheres (SP) (cortical neurospheres) | secondary spheres per primary sphere (cortical neurospheres) | levels of Nestin, Nucleostemin and Bmi1 transcripts [1] | relative expression of Nestin, Nucleostemin and Bmi1 transcripts [1] | G (glial only) colonies (NCSC populations [2]) | G + Sm colonies (NCSC populations [2]) | N (neurons only) colonies (NCSC populations [2]) | N + G + Sm (trifatent) colonies (NCSC populations [2]) | N + G colonies (NCSC populations [2]) | N + Sm colonies (NCSC populations [2]) | Sm (smooth muscle only) colonies (NCSC populations [2]) | clones that were trifatent (neurons, glial, and smooth muscle progeny) (NCSC populations [2]) | Secondary NSSC/ Founder (NCSC populations [2]) | NCSC clones not expressing gliogenic or neurogenic differentiation markers (NCSC populations [3]) | percentage of the colony expressing the glial-specific protein (GFAP) (NCSC populations [3]; at day 7) | gliogenic differentiation of NCSC (NCSC populations [3]; two week differentiation assay) | exposure time after which GFAP immunoreactive cells were detected (NCSC populations [3]; NCSC populations)
sJ1: Soluble Jagged1, amino acid residues about 1 to 1067 (SEQ ID NO:3) of full-length human Jagged1 | induced the expression of the FGF1.A transcript | 10%* | 527 ± 170* | 55 ± 14 | 64±11 | no significant change | elevated | 7.8 ± 1.4 | 3.4 ± 2.8 | 0 | 74.1 ± 9.1 | 7.0 ± 5.6 | 1.5 ± 1.7 | 6.2 ± 1.0 | 74.1±9% | 26.2 ± 6 | 84±7% | 23±5 | capable of inducing gliogenic differentiation of the NCSC population over the two week period | –
thrombin | induced the expression of the FGF1.A transcript | 13%* | 488 ± 166* | 64 ± 11 | 55±14 | no significant change | elevated | 0 ± 0 | 2.0 ± 2.1 | 0 | 86.8 ± 2.1 | 3.93 ± 3.8 | 4.5 ± 2.1 | 2.6 ± 1.01 | 86.8±2.1% | 36.8 ± 6.3 | 75±11% | – | – | –
sDl1: soluble non-transmembrane form (extracellular domain) of the Notch ligand Delta1 (protein, left off: small tags and cut ends, soluble non-transmembrane form (extracellular domain) of the Notch ligand Delta1) QVWSSGVFELKLQEFVNKKGLLGNRNCCRGGAGPPPCACRTFFRVCLKHYQASVSPEPPCTYGSAVTPVLGVDSFSLPDGGGADSAFSNPIRFPFGFTWPGTFSLIIEALHTDSPDDLATENPERLISRLATQRHLTVGEEWSQDLHSSGRTDLKYSYRFVCDEHYYGEGCSVFCRPRDDAFGHFTCGERGEKVCNPGWKGPYCTEPICLPGCDEQHGFCDKPGECKCRVGWQGRYCDECIRYPGCLHGTCQQPWQCNCQEGWGGLFCNQDLNYCTHHKPCKNGATCTNTGQGSYTCSCRPGYTGATCELGIDECDPSPCKNGGSCTDLENSYSCTCPPGFYGKICELSAMTCADGPCFNGGRCSDSPDGGYSCRCPVGYSGFNCEKKIDYCSSSPCSNGAKCVDLGDAYLCRCQAGFSGRHCDDNVDDCASSPCANGGTCRDGVNDFSCTCPPGYTGRNCSAPVSRCEHAPCHNGATCHERGHRYVCECARGYGGPNCQFLLPELPPGPAVVDLTEKLEGQGGPFPW | did not influence the steady-state levels of the FGF1.A transcript | 2.0% | 150 ± 69* | 3 ± 3 | 3±3 | sharply decreased | – | 72 ± 6.4 | 3.4 ± 2.8 | 0 | 0.5 ± 0.7 | 0 | 0 | 20.5 ± 6.5 | 0.5% | 0.6 ± 1.0 | 0±0% | – | – | 48 h
